What was measured:
Type in all cases: protein assay
Mushroom tyrosinase [1] = target: T1, Mushroom tyrosinase (Agaricus bisporus, UniProt O42713+Q00024+C7FF04+C7FF05); test: Inhibition of mushroom tyrosinase using L-dopa as substrate by spectrophotometric method
Mushroom tyrosinase [2] = target: T1, Mushroom tyrosinase; test: Inhibition of mushroom tyrosinase using L-DOPA as substrate incubated for 20 mins spectrophotometric analysis
Mushroom tyrosinase [3] = target: T1, Mushroom tyrosinase; test: Inhibition of mushroom tyrosinase using L-DOPA as substrate pre-treated for 20 mins followed by substrate addition measured for 15 mins by absorbance based analysis
Mushroom tyrosinase [4] = target: T1, Mushroom tyrosinase; test: Inhibition of mushroom tyrosinase by spectrophotometric method
Mushroom tyrosinase [5] = target: T1, Mushroom tyrosinase; test: Inhibition of mushroom tyrosinase using L-tyr as substrate
Mushroom tyrosinase [6] = target: T1, Mushroom tyrosinase; test: Inhibition of mushroom tyrosinase using L-DOPA as substrate measured for 15 mins by spectrophotometer analysis
Mushroom tyrosinase [7] = target: T1, Mushroom tyrosinase; test: Inhibition of mushroom tyrosinase incubated for 10 mins by spectrophotometric analysis
Mushroom tyrosinase [8] = target: T1, Mushroom tyrosinase; test: Binding affinity to mushroom tyrosinase assessed as inhibition constant
Mushroom tyrosinase [9] = target: T1, Mushroom tyrosinase; test: (§1) Inhibition of mushroom tyrosinase using L-DOPA as substrate incubated for 15 mins by spectrophotometric analysis
[10] = target: Mushroom tyrosinase (Agaricus bisporus) (UniProt O42713+Q00024+C7FF04+C7FF05); test: as §1
Mushroom tyrosinase [11] = target: T1, Mushroom tyrosinase; test: Inhibition of mushroom tyrosinase using L-DOPA as substrate preincubated for 10 mins
Mushroom tyrosinase [12] = target: T1, Mushroom tyrosinase; test: Binding affinity to mushroom tyrosinase assessed as binding constant by fluorescence spectrophotometry
Mushroom tyrosinase [13] = target: T1, Mushroom tyrosinase; test: Inhibition of mushroom tyrosinase using L-tyrosine as substrate incubated for 20 mins by spectrophotometric analysis

Nn1c(S)nnc1N/N=C\c1cccc(O)c1
IC50 (Mushroom tyrosinase [1]): 7000 nM

O=c1cc(Cn2cc(COc3ccc4ccccc4c3)nn2)occ1O
IC50 (Mushroom tyrosinase [2]): 300 nM

Oc1ccc2c(c1)OCO2
IC50 (Mushroom tyrosinase [3]): 6700 nM

CCCCCn1nc(-c2ccccc2)n(CC(=O)NNC(=O)Nc2cc(C(F)(F)F)cc(C(F)(F)F)c2)c1=O
IC50 (Mushroom tyrosinase [4]): 1 nM

COc1ccc(C=O)cc1O [ISOVANILLIN]
IC50 (Mushroom tyrosinase [5]): > 500000 nM

Nn1c(S)nnc1N/N=C\c1ccccc1O
IC50 (Mushroom tyrosinase [1]): 1520 nM

O=c1cc(Cn2cc(COc3cccc4ccccc34)nn2)occ1O
IC50 (Mushroom tyrosinase [2]): 60 nM

Cc1c(NC(=O)Cn2cc(COc3ccc(/C=N/NC(N)=S)cc3)nn2)cccc1[N+](=O)[O-]
IC50 (Mushroom tyrosinase [6]): 120 nM

Nn1c(S)nnc1N/N=C\c1cccc(F)c1
IC50 (Mushroom tyrosinase [1]): 12500 nM

CCCCCn1nc(-c2ccccc2)n(CC(=O)NNC(=O)Nc2cccc(C(F)(F)F)c2)c1=O
IC50 (Mushroom tyrosinase [4]): 1 nM

O=c1cc(Cn2cc(COc3ccc([N+](=O)[O-])cc3)nn2)occ1O
IC50 (Mushroom tyrosinase [7]): 520 nM

Cc1cc(C=C2C(=O)NC(=S)NC2=O)c(OCc2cn(Cc3ccc(F)cc3)nn2)cc1Br
Ki (Mushroom tyrosinase [8]): 60270 nM
IC50 (Mushroom tyrosinase [9]): 24600 nM

O=c1oc2ccccc2c2c1cnn2Cc1cn(-c2ccccc2)nn1
inhibition [10]: 85%

CCCCCn1nc(-c2ccccc2)n(CC(=O)NNC(=S)Nc2ccccc2C(F)(F)F)c1=O
Ki (Mushroom tyrosinase [8]): 100 nM

COc1ccc(NC(=O)Cn2cc(COc3ccc(/C=N/NC(N)=S)cc3)nn2)cc1
IC50 (Mushroom tyrosinase [6]): 250 nM

O=C(CSc1nnc(-c2ccccc2F)n1-c1ccc(F)cc1)Nc1ccc(F)cc1
IC50 (Mushroom tyrosinase [11]): 98 nM
Ki (Mushroom tyrosinase [12]): 18 nM

C/C=C/c1ccc(O)c(OC)c1
IC50 (Mushroom tyrosinase [13]): 33330 nM

CCCCCn1nc(-c2ccccc2)n(CC(=O)NNC(=O)Nc2ccccc2C(F)(F)F)c1=O
Ki (Mushroom tyrosinase [8]): 10 nM
IC50 (Mushroom tyrosinase [4]): 1 nM
